Data reported in patent US8927599B2, “Use of statins as anticonvulsants, antiepileptics and neuroprotectors” (Neuron Biopharma, S.A., priority 2008, dated 2015).
Read-outs that look alike come from different tables or passages of the source.

Tests used:
[1] = tested on: male mice of the FVB/N strain inoculated with kainate (KA); experiment: Kainate-induced convulsions, epilepsy level on the Racine scale and latency (Example 1); format: in vivo; conditions: for time of the onset of the first convulsion (latency): KA 30 mg/kg i.p., FIG. 1
Method: All the animals included during the experimental process were 16 week old male mice of the FVB/N strain [Taconic Farms, Inc. (www.taconic.com)]. The experiments were carried out strictly following the Guidance on the Operation of Animals (Scientific Procedures, Act. 1986). The animals had their respective quarantine period and were treated with maximum precaution to minimize possible contaminations during inoculations and handling.
The animals, distributed into different groups, were intraperitoneally inoculated with 30 mg/kg of kainate (KA) dissolved in phosphate buffer saline (PBS), according to the following protocol: • seven animals were pretreated, at 24 and 0.5 hours before the inoculation with KA, with PBS by means of intraperitoneal (i.p.) injection; • six animals were pretreated, at 24 and 0.5 hours before the inoculation with KA, with simvastatin at a dose of 50 mg/kg by means of i.p. injection; and • four animals were pretreated, at 24 and 0.5 hours before the inoculation with KA, with DNQX (a specific inhibitor of KA receptors) at a dose of 30 mg/kg, by means of i.p. injection.
(§1) After the inoculation with KA, the animals were individually housed in cages to monitor them. The maximum epilepsy level of the animals was recorded every 10 minutes during the observation according to the Racine scale and for at least 120 minutes post-inoculation (m.p.i.).

patient = conditions: cited from earlier work
[2] = tested on: male mice of the FVB/N strain inoculated with kainate (KA); experiment: Kainate-induced convulsions and status epilepticus, lovastatin (Example 10); format: in vivo; conditions: KA 25 mg/kg i.p., 50 mg/kg i.p. at 24 and 0.5 h before KA
Method: All the animals included during the experimental process were 12 week old male mice of the FVB/N strain [Taconic Farms, Inc. (www.taconic.com)]. The experiments were carried out strictly following the Guidance on the Operation of Animals (Scientific Procedures, Act. 1986). The animals had their respective quarantine period and were treated with maximum precaution to minimize possible contaminations during inoculations and handling.
The mice, distributed into different groups, were intraperitoneally inoculated with 25 mg/kg of KA dissolved in PBS, according to the following protocol: • five mice were pretreated, at 24 and 0.5 hours before the inoculation with KA, with PBS by means of intraperitoneal (i.p.) injection; and • five animals were pretreated, at 24 and 0.5 hours before the inoculation with KA, with lovastatin at a dose of 50 mg/kg by means of i.p. injection
After the inoculation with KA, the animals were individually housed in cages to monitor them. The maximum epilepsy level of the animals was recorded every 10 minutes during the observation according to the Racine scale and for at least 120 minutes post-inoculation (m.p.i.). Comparative studies of the epilepsy levels between the treatment with PBS and with lovastatin (FIG. 12) were subsequently conducted. […]

[3] = tested on: male mice of the FVB/N strain inoculated with kainate (KA); experiment: Effect of the route of administration, kainate model (Example 3); format: in vivo; conditions: FIG. 5
Method: As shown in Examples 1 and 2, simvastatin has antiepileptic properties and such properties depend on the dose at which said compound is administered. Due to these observations, the inventors decided to investigate if the antiepileptic effect of simvastatin would also be modulated by the route of administration. All the animals included during the experimental process were 16 week old male mice of the FVB/N strain. The experiments were carried out strictly following the Guidance on the Operation of Animals (Scientific Procedures, Act. 1986). The animals had their respective quarantine period and were treated with maximum precaution to minimize possible contaminations during inoculations and handling.
The animals, distributed into different groups, were intraperitoneally inoculated with 25 mg/kg of KA dissolved in PBS, according to the following protocol: • three animals were pretreated, at 24 and 0.5 hours before the inoculation with KA, with simvastatin at a dose of 50 mg/kg by means of direct oral administration; and • two animals were pretreated, at 24 and 0.5 hours before the inoculation with KA, with simvastatin at a dose of 50 mg/kg by means of i.p. injection
as §1

## O=[N+]([O-])c1cc2nc(O)c(O)nc2cc1[N+](=O)[O-] [DNQX]
[1]; pretreated 30 mg/kg i.p. at 24 and 0.5 h before KA
  time of the onset of the first convulsion (latency): 23.3 ± 7.6 min
[1]; after 30 m.p.i. of KA 30 mg/kg, 30 mg/kg i.p. pretreatment, FIG. 3
  epilepsy level (Racine scale) versus PBS: prevents the increase of the epileptic levels

## CC(C)n1c(/C=C/C(O)CC(O)CC(=O)O)c(-c2ccc(F)cc2)c2ccccc21 (centres unmarked) [fluvastatin]
patient; patient with catastrophic antiphospholipid syndrome, Miesbach et al., J Neurol Sci. 2005
  adverse event after administration to a patient: focal convulsions

## CC[C@H](C)C(=O)O[C@H]1C[C@@H](C)C=C2C=C[C@H](C)[C@H](CC[C@@H]3C[C@@H](O)CC(=O)O3)[C@H]21 [lovastatin]
[2]; PBS 3 of 5
  entrance into status epilepticus: 0 of 5
[2]; PBS+KA about 3, p-value=0.00059, FIG. 12
  epilepsy symptoms (Racine scale) at the end of the observation time: completely reduced the epilepsy symptoms

## CC(C)c1nc(N(C)S(C)(=O)=O)nc(-c2ccc(F)cc2)c1/C=C/[C@@H](O)C[C@@H](O)CC(=O)O [rosuvastatin]
patient; Lorenzoni et al., Arq Neuropsiquiatr. 2007
  adverse event after administration to a patient: severe rhabdomyolysis with convulsions and coma

## CCC(C)(C)C(=O)O[C@H]1C[C@@H](C)C=C2C=C[C@H](C)[C@H](CC[C@@H]3C[C@@H](O)CC(=O)O3)[C@H]21 [simvastatin]
[1]; pretreated 50 mg/kg i.p. at 24 and 0.5 h before KA
  time of the onset of the first convulsion (latency): 50.0 ± 11.8 min
[1]; after 30 m.p.i. of KA 30 mg/kg, 50 mg/kg i.p. pretreatment, FIG. 2
  mean epilepsy level (Racine scale): ≤ 4
[3]; 50 mg/kg direct oral administration, reached at 100 m.p.i. and maintained until 120 m.p.i., KA 25 mg/kg
  epileptic level (Racine scale): 2
[3]; 50 mg/kg i.p., 70 m.p.i. of KA 25 mg/kg
  epileptic level (Racine scale): 2
[3]; 50 mg/kg i.p., 120 m.p.i. of KA 25 mg/kg
  epileptic level (Racine scale): 1
